# Patent US20220251143A1, “NON-HYDROLYZABLE NON-CLEAVABLE, STABLE LINKERS FOR PRECISION THERAPEUTICS AND USES THEREOF” (THE TRUSTEES OF COLUMBIA UNIVERSITY IN THE CITY OF NEW YORK, priority 2019, published 2022)
# Bridge positions count the residues as written; N and C are the ends. Square brackets hold non-standard residues; d marks the D form. Peptide text beside a SMILES is read from it. * marks the point of attachment. DM1Mal(CH2)2CO = COc1cc2cc(c1Cl)N(C)C(=O)C[C@H](OC(=O)[C@H](C)N(C)C(=O)CCSC1CC(=O)N(CCC(=O)*)C1=O)[C@]1(C)O[C@H]1[C@H](C)[C@@H]1C[C@@](O)(NC(=O)O1)[C@H](OC)/C=C/C=C(\C)C2; X1 = COc1cc2cc(c1Cl)N(C)C(=O)C[C@H](OC(=O)[C@H](C)N(C)C(=O)CCSC1CC(=O)N(CCCC(=O)*)C1=O)[C@]1(C)O[C@H]1[C@H](C)[C@@H]1C[C@@](O)(NC(=O)O1)[C@H](OC)/C=C/C=C(\C)C2; d2Nal = N[C@H](Cc1ccc2ccccc2c1)C(=O)O; PEG2 = NCCOCCOCCC(=O)O
# Key:
# [1] = Stability of aqueous solutions at 4° C.; type: physicochemical; conditions: preliminary studies
# Excerpt: (§1) Conjugate composition comprising DM1 and lanreotide and the non-hydrolyzable, non-cleavable, stable linker GMBS was synthesized as shown in Scheme 1. Briefly, the primary amine of lanreotide was protected with Boc20. The reaction of the second amine group of the protected lanreotide with the NHS ester of GMBS gave the intermediate GMBS-lanreotide. The reaction of the maleimide of GMBS-lanreotide with the sulfhydryl group (—SH) of DM1 gave a protected conjugate. De-protection of the Boc with TFA provided the final product. All compounds were fully characterized and purified to >95% as determined by NMR and LC-MS analyses. The purity of the compound for animal studies is >98%.
# as §1, with “PEG” for “GMBS”, “2.” for “1.”, “PEG-lanreotide.” for “GMBS-lanreotide.”, “PEG-lanreotide” for “GMBS-lanreotide”
# [2] = test system: neuroendocrine prostate cancer (NEPC) organoids; conditions: three days
# Excerpt: A neuroendocrine prostate cancer (NEPC) cell line was used and NEPC organoids were generated.
# CellTiter-Glo Luminescent Cell Viability assay measured viable cells. The percentage of viable cells after drug treatment compared to vehicle control (DMSO) was used to generate a dose—response curve.
# [3] = test system: SSTR2 expression in NEC3 (H727) cells; experiment: SSTR2 expression by quantitative PCR, NEC3; type: cell-based; conditions: within 72 hours, 1 or 3 nanomolar romidepsin or 1 micromolar entinostat
# Protocol: (§2) Three neuroendocrine cell lines, NEC1 (NCI—H82), NEC2 (Kelly), and NEC3 (H727), were incubated in media containing 1 or 3 nanomolar romidepsin (EA1) or 1 micromolar entinostat (EA2) or without drug at 37° C. under 5% CO2 for 72-96 hours after which time cellular RNA was harvested and expression of the SSTR determined.
# (§3) Somatostatin receptor expression was measured by quantitative PCR using primers for SSTR2.
# [4] = test system: SSTR2 expression in NEC1 (NCI-H82) cells; experiment: SSTR2 expression by quantitative PCR, NEC1; type: cell-based; conditions: within 72 hours, 1 or 3 nanomolar romidepsin or 1 micromolar entinostat
# Protocol: as §2, §3
# [5] = test system: SSTR2 expression in NEC2 (Kelly) cells; experiment: SSTR2 expression by quantitative PCR, NEC2; type: cell-based; conditions: within 72 hours, 1 or 3 nanomolar romidepsin or 1 micromolar entinostat
# Protocol: as §2, §3
SMILES,stability of aqueous solutions [1],"effectiveness compared with conjugate with cleavable, hydrolysable linker (MCC) ([2]; NEPC organoids)",activity in NEPC organoids (viable cells) ([2]; 1 uM to 0.00046 uM),induction of the somatostatin receptor (SSTR2 expression) [3],induction of the somatostatin receptor (SSTR2 expression) [4],induction of the somatostatin receptor (SSTR2 expression) [5]
COc1cc2cc(c1Cl)N(C)C(=O)C[C@H](OC(=O)[C@H](C)N(C)C(=O)CCSC1CC(=O)N(CCCC(=O)N[C@H](Cc3ccc4ccccc4c3)C(=O)N[C@H]3CSSC[C@H](C(=O)N[C@H](C(N)=O)[C@@H](C)O)NC(=O)[C@H](C(C)C)NC(=O)[C@H](CCCCN)NC(=O)[C@@H](Cc4c[nH]c5ccccc45)NC(=O)[C@H](Cc4ccc(O)cc4)NC3=O)C1=O)[C@]1(C)O[C@H]1[C@H](C)[C@@H]1C[C@@](O)(NC(=O)O1)[C@H](OC)/C=C/C=C(\C)C2 (stereo partly shown) [DM1-GMBS-Lanreotide] (X1-[d2Nal]CY[dW]KV[dC]T-NH2; disulfide 2-7),stable at 4 °C for months,–,–,–,–,–
COc1cc2cc(c1Cl)N(C)C(=O)C[C@H](OC(=O)[C@H](C)N(C)C(=O)CCSC1CC(=O)N(CCC(=O)NCCOCCOCCC(=O)N[C@H](Cc3ccc4ccccc4c3)C(=O)N[C@H]3CSSC[C@H](C(=O)N[C@H](C(N)=O)[C@@H](C)O)NC(=O)[C@H](C(C)C)NC(=O)[C@H](CCCCN)NC(=O)[C@@H](Cc4c[nH]c5ccccc45)NC(=O)[C@H](Cc4ccc(O)cc4)NC3=O)C1=O)[C@]1(C)O[C@H]1[C@H](C)[C@@H]1C[C@@](O)(NC(=O)O1)[C@H](OC)/C=C/C=C(\C)C2 (stereo partly shown) [DM1-PEG-Lanreotide] ({DM1Mal(CH2)2CO-PEG2}-[d2Nal]CY[dW]KV[dC]T-NH2; disulfide 2-7),stable at 4 °C for months,more effective,effective and active,–,–,–
Nc1ccccc1NC(=O)c1ccc(CNC(=O)OCc2cccnc2)cc1 [entinostat],–,–,–,Induction of the somatostatin receptor,Induction of the somatostatin receptor,Induction of the somatostatin receptor
